According to patent US12448371B2, “Inhibitor compounds” (Cincera Therapeutics Pty Ltd, priority 2019, dated 2025):
Like-named read-outs stand apart in the source and are kept apart here.

What was measured:
Des1 (h) = biological target: T1, Des1 (h) (Homo sapiens, UniProt O15121); test: Measurement of Dihydroceramide Desaturase-1 (Des-1) activity in intact Jurkat cells labeled with DhCer-C6-NBD (HPLC); type: cell-based
T1 construct: endogenous in cells; host or cells: parental Jurkat cells
T1 sequence (O15121 1-323): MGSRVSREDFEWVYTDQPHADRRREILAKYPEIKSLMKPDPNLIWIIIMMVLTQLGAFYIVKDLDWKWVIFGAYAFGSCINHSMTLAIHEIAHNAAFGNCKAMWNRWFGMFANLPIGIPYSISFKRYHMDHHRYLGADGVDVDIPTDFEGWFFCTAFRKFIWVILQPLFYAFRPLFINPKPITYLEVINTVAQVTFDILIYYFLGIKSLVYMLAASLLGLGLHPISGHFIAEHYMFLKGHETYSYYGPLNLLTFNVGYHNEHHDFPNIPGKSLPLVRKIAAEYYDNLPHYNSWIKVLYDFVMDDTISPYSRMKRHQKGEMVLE
How it was run: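 Intact parental Jurkat cells in 0.5% serum medium were labelled with DhCer-C6-NBD; cells harvested at 500×g and ceramides extracted. NBD-labelled substrate and product resolved by C18 reverse-phase HPLC and quantified by fluorescence (ex 465/em 530 nm) as a measure of Des-1 activity.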

[1] = T1/2 Human Liver Microsomes; type: in vitro ADME
Description: Some non-limiting illustrative examples are presented below in Table 3-1.

[2] = tested on: Connective Tissue Growth Factor (CTGF) gene expression; test: Real time quantitative PCR in TGFβ-stimulated human hepatic stellate cells (LX2) to detect CTGF gene expression; type: cell-based; settings: CTGF mRNA in TGFβ-stimulated LX2 cells vs vehicle control; for inhibition at 5 µM: LX-2, 5 μM; for inhibition at 1 µM: LX-2, 1 μM; for inhibition at 10 µM: LX-2, 10 μM
Procedure: Real Time Quantitative Polymerase Chain Reaction in Human Hepatic Stellate Cells (LX2) to Detect Connective Tissue Growth Factor (CTGF) Gene Expression The hepatic stellate cell line, LX2 was maintained in DMEM (LifeTechnologies) with 2% heat-inactivated FBS, 100U penicillin (LifeTechnologies), 0.1 mg/mL streptomycin (LifeTechnologies), and 2 mM L-glutamine (LifeTechnologies) at 37° C. with 5% CO2. Cells were seeded into 6-well plates (200,000 cells per well, 2 mLs media) and grown overnight. The cells were changed to 2 mLs 0.5% FBS media for 24 hours prior to treatment. Treatments were added in 2 mLs fresh 0.5% FBS media (vehicle control, long/mL TGFβ alone (R&D Systems), 10 ng/mL TGFβ+inhibitors) and incubated for 24 hours. […] RNA was extracted using Qiagen RNeasy kit (cat #74104), according to manufacturer's instructions. RNA (1 μg) was used to generate cDNA using the Qiagen Quantitect Reverse Transcription Kit (cat #205311), and stored at -20° C. cDNA was diluted (1:25 final) and combined with Sybr Green (Qiagen cat #204143), forward and reverse primers (50 ng each) and run on Real Time PCR Thermocycler machine (RG-6000, Corbett) with the following PCR conditions: Hold 1: 50° C. for 2 min; Hold 2: 95° C. for 15 min; Cycling: 45 cycles of: 95° C. for 30 sec, 58° C. for 21 sec, 72° C. for 15 sec, Hold 3: 72° C. for 30 sec, Melt: 72° C. to 99° C. GAPDH primers (Forward: [NT]; Reverse: [NT] primers (Forward: [NT]; Reverse: [NT] primers available from Origene, cat #HP205671)].

[3] = tested on: TGF-β1-mediated αSMA expression; test: Fibroblast-to-Myofibroblast Transition (FMT) in human lung cells derived from IPF patient donors; type: cell-based; settings: primary human bronchial fibroblasts from IPF donors; 8 concentrations up to 10 μM; FIG. 2
Procedure: Fibroblast-to-Myofibroblast Transition (FMT) in Human Lung Cells Derived from Idiopathic Pulmonary Fibrosis (IPF) Patient Donors
Lung-derived primary human bronchial fibroblasts (from IPF donors) were seeded at 3,000 cells per well in 96-well plates, and were grown over 5 days prior to treatment with the desired compounds (cell medium was refreshed at 48 h). Cells were then treated with 8 different concentrations of Compound 8 or 46, in semi-log dilutions starting from the top dosage of 10 μM (vehicle control: 0.1% DMSO; positive control: SB525334 and nintendanib). 1-hour post compound addition, the cells were stimulated with the addition of 1.25 ng/mL TGF-β1, and incubated for 72 hours. Cells were then fixed with 4% formaldehyde, then stained using […] and imaged via high-content analysis. The assay was conducted in biological duplicates. This in vitro FMT assay results were provided by Charles River Laboratories through a service agreement.

[4] = Table 3-1, comparison of W ring with and without nitrogen, read-out: Des1 IC50
[5] = intact Jurkat cells, given as concentration range, or <X / >X if measured at one concentration X only, read-out: Des1 (h) Jurkat IC50

| Structure (SMILES) | IC50 (Des1 (h); [4]) | half-life [1] | IC50 (Des1 (h); [5]) | inhibition at 5 µM [2] | further results |
| --- | --- | --- | --- | --- | --- |
| N=C(NO)c1ccc(Nc2ncc(-c3ccc(C(F)(F)F)cc3)o2)cc1 | 800 to 1000 nM | 0.5 to 0.667 h | – | – | – |
| O=C(NCC(O)CO)c1ccc(Nc2ncc(-c3ccc(C(F)(F)F)cc3)o2)cn1 (centres unmarked) | 1 to 10 nM | 3.5 to 3.67 h | – | – | – |
| N=C(NO)c1ccc(Nc2ncc(-c3ccc(C(F)(F)F)cc3)o2)cn1 [Example 8, 5-((5-[4-(Trifluoromethyl)phenyl]-1,3-oxazol-2-yl)amino)-N-hydroxy-pyridine-2-carboximidamide] | – | – | 100 to 1000 nM | > 90% | inhibition of TGF-β1-mediated αSMA expression in IPF donors [3]: concentration-dependent inhibition |
| N=C(NO)c1ccc(Nc2ncc(-c3ccc(C(F)(F)F)cn3)o2)cn1 [Example 46, N′-hydroxy-5-((5-(5-(trifluoromethyl)pyridin-2-yl)oxazol-2-yl)amino)-picolinimidamide] | – | – | 100 to 1000 nM | > 90% | inhibition of TGF-β1-mediated αSMA expression in IPF donors [3]: concentration-dependent inhibition |
| N/C(=N\O)c1cnc(Nc2ncc(-c3ccc(C(F)(F)F)cc3)o2)cn1 [Example 54, N′-Hydroxy-5-((5-(4-(trifluoromethyl)phenyl)oxazol-2-yl)amino)pyrazine-2-carboximidamide] | – | – | 100 to 1000 nM | – | inhibition at 1 µM [2]: 70 to 80%; inhibition at 10 µM [2]: 80 to 90% |
| N/C(=N\O)c1ncc(Nc2ncc(-c3ccc(C(F)(F)F)cc3)o2)cn1 [Example 55, N′-Hydroxy-5-((5-(4-(trifluoromethyl)phenyl)oxazol-2-yl)amino)pyrimidine-2-carboximidamide] | – | – | < 1000 nM | – | inhibition at 1 µM [2]: 20 to 30%; inhibition at 10 µM [2]: 40 to 50% |
| N/C(=N\O)c1cnc(Nc2ncc(-c3ccc(C(F)(F)F)cn3)o2)cn1 [Example 57, N′-Hydroxy-5-((5-(5-(trifluoromethyl)pyridin-2-yl)oxazol-2-yl)amino)pyrazine-2-carboximidamide] | – | – | < 1000 nM | – | inhibition at 1 µM [2]: 1 to 10%; inhibition at 10 µM [2]: 50 to 60% |
| N/C(=N/O)c1cnc(Nc2ncc(-c3ccc(OC(F)(F)F)cc3)o2)cn1 [Example 70, N′-Hydroxy-5-((5-(4-(trifluoromethoxy)phenyl)oxazol-2-yl)amino)pyrazine-2-carboximidamide] | – | – | < 1000 nM | > 90% | – |
| N/C(=N\O)c1ccc(Nc2cnn(-c3ccc(C(F)(F)F)cn3)c2)cn1 [Example 72, N′-Hydroxy-5-((1-(5-(trifluoromethyl)pyridin-2-yl)-1H-pyrazol-4-yl)amino)picolinimidamide] | – | – | < 1000 nM | 50 to 60% | inhibition at 1 µM [2]: 40 to 50% |
| N/C(=N\O)c1ccc(Nc2ccn(-c3ccc(C(F)(F)F)cn3)n2)cn1 [Example 73, N′-Hydroxy-5-((1-(5-(trifluoromethyl)pyridin-2-yl)-1H-pyrazol-3-yl)amino)picolinimidamide] | – | – | < 1000 nM | > 90% | – |
| N/C(=N\O)c1ccc(Nc2ccn(-c3ccc(C(F)(F)F)cc3)n2)cn1 [Example 74, N′-Hydroxy-5-((1-(4-(trifluoromethyl)phenyl)-1H-pyrazol-3-yl)amino)picolinimidamide] | – | – | < 1000 nM | 80 to 90% | – |
| N/C(=N/O)c1ccc(Nc2cc(-c3ccc(C(F)(F)F)cn3)no2)cn1 [Example 75, N′-Hydroxy-5-((3-(5-(trifluoromethyl)pyridin-2-yl)isoxazol-5-yl)amino)picolinimidamide] | – | – | < 1000 nM | > 90% | – |
| N/C(=N\O)c1ccc(Nc2nc(-c3ccc(C(F)(F)F)cc3)no2)cn1 [Example 82, N′-hydroxy-5-((3-(4-(trifluoromethyl)phenyl)-1,2,4-oxadiazol-5-yl)amino)picolinimidamide] | – | – | < 1000 nM | > 90% | – |
| N/C(=N\O)c1ccc(Nc2nc(-c3ccc(C(F)(F)F)cn3)no2)cn1 [Example 84, N′-Hydroxy-5-((3-(5-(trifluoromethyl)pyridin-2-yl)-1,2,4-oxadiazol-5-yl)amino)picolinimidamide] | – | – | > 1000 nM | 80 to 90% | inhibition at 1 µM (Des1 (h); Jurkat cells, 1 μM): 45% |
| N/C(=N\O)c1ccc(Nc2nc(-c3ccc(OC(F)(F)F)cc3)no2)cn1 [Example 86, N′-Hydroxy-5-((3-(4-(trifluoromethoxy)phenyl)-1,2,4-oxadiazol-5-yl)amino)picolinimidamide] | – | – | < 1000 nM | > 90% | – |
| N/C(=N\O)c1ccc(Nc2cc(-c3ccc(C(F)(F)F)cc3)no2)cn1 [Example 89, N′-hydroxy-5-((3-(4-(trifluoromethyl)phenyl)isoxazol-5-yl)amino)picolinimidamide] | – | – | < 1000 nM | > 90% | – |
| N=C(NO)c1ccc(Nc2ncc(-c3ccc(C(F)(F)F)cc3)o2)cn1 [drawing 414] | 100 to 200 nM | 1.5 to 1.67 h | – | – | – |
| N/C(=N\O)c1ccc(Nc2ncn(-c3ccc(C(F)(F)F)cc3)n2)cn1 [drawing 416] | 70 to 80 nM | 2.83 to 3 h | – | – | – |
| N=C(NO)c1ccc(Nc2ncc(-c3ccc(C(F)(F)F)cn3)o2)cn1 [drawing 417] | 400 to 500 nM | 3.17 to 3.33 h | – | – | – |
| N/C(=N\O)c1ccc(Nc2ncc(-c3ccc(C(F)(F)F)cc3)o2)nn1 [drawing 418] | 1 to 10 nM | 2.5 to 2.83 h | – | – | – |
